Patent US10144709B2, “Piperidine compounds, pharmaceutical composition comprising the same and its use” (SK BIOPHARMACEUTICALS CO., LTD., priority 2008, dated 2018)
Structures can show the parent of a compound that is named as a salt.

Tested on: ICR CD strain male mice
Test: Gastric emptying enhancing activity (phenol red meal)
Type: in vivo
Details: Mus musculus, ip, 0.25 h, 3.0 mg/kg i.p., gastric emptying at 15 min after test meal, increase vs vehicle
Procedure: ICR CD strain male mice (body weight, 25˜30 g; 8 mice per one group) were fasted for 24 h but allowed free access to water until 3 hours before the test.
Compounds to be tested for promoting GI motility were injected intraperitoneally or given orally at 30 min or 60 min prior to phenol red meal administration. Fifteen (15) min after administration of a test meal (0.5% Phenol red in 1.5% methylcellulose solution), mice were sacrificed and the stomach (pylorus˜cardia) was removed and collected to vial. The stomach was homogenized with its contents in 0.1N NaOH and the mixture was centrifuged (700*g) for 20 min. 2.5 mL of the supernatant was added to 0.25 mL of trichloroacetic acid solution (20% w/v) to precipitate proteins. After centrifuging (2600*g) for 20 min, 0.5 mL of the supernatant was added to 0.25 mL of 1N NaOH. The mixture was homogenized and its absorbance (Abs) was read at 560 nm.
In each experiment, one group was sacrificed just after the administration of the test meal and was considered as a standard (0% emptying). The gastric emptying (GE) at the 15 min period was calculated according to the following formula. GE (%)=(1−Abstest/Absstandard)×100 Increase (%)=(GE %test−GE %vehicle)/GE %vehicle*100

| Structure (SMILES) | change in vivo at 3 mg/kg |
| --- | --- |
| COc1cc(N)c(Cl)cc1C(=O)NCC1CCN(CC(O)c2ccc(F)cc2)CC1 (stereo not drawn) [Example 2, 4-amino-5-chloro-N-[[1-[2-(4-fluorophenyl)-2-hydroxyethyl]piperidin-4-yl]methyl]-2-methoxybenzamide; hydrochloride] | 42.6% |
| COc1cc(N)c(Cl)cc1C(=O)NCC1CCN(CC(O)c2ccc(C)cc2)CC1 (stereo not drawn) [Example 3, 4-amino-5-chloro-N-[[1-[2-hydroxy-2-(4-methylphenyl)ethyl]piperidin-4-yl]methyl]-2-methoxybenzamide; hydrochloride] | 71.1% |
| COc1ccc(C(O)CN2CCC(CNC(=O)c3cc(Cl)c(N)cc3OC)CC2)cc1 (stereo not drawn) [Example 4, 4-amino-5-chloro-N-[[1-[2-hydroxy-2-(4-methoxyphenyl)ethyl]piperidin-4-yl]methyl]-2-methoxybenzamide; hydrochloride] | 74.1% |
| COc1cc(N)c(Cl)cc1C(=O)NCC1CCN(CC(O)c2ccc(C#N)cc2)CC1 (stereo not drawn) [Example 5, 4-amino-5-chloro-N-[[1-[2-(4-cyanophenyl)-2-hydroxyethyl]piperidin-4-yl]methyl]-2-methoxybenzamide; hydrochloride] | 76.1% |
| COc1cc(N)c(Cl)cc1C(=O)NCC1CCN(CC(O)c2ccccc2OC)CC1 (stereo not drawn) [Example 8, 4-amino-5-chloro-N-[[1-[2-hydroxy-2-(2-methoxyphenyl)ethyl]piperidin-4-yl]methyl]-2-methoxybenzamide; hydrochloride] | 51.6% |
| COc1cccc(C(O)CN2CCC(CNC(=O)c3cc(Cl)c(N)cc3OC)CC2)c1 (stereo not drawn) [Example 9, 4-amino-5-chloro-N-[[1-[2-hydroxy-2-(3-methoxyphenyl)ethyl]piperidin-4-yl]methyl]-2-methoxybenzamide; hydrochloride] | 55.8% |
| COc1cc(N)c(Cl)cc1C(=O)NCC1CCN(CC(O)c2ccccc2Cl)CC1 (stereo not drawn) [Example 13, 4-amino-5-chloro-N-[[1-[2-(2-chlorophenyl)-2-hydroxyethyl]piperidin-4-yl]methyl]-2-methoxybenzamide; hydrochloride] | 14% |
| COc1ccc(OC)c(C(O)CN2CCC(CNC(=O)c3cc(Cl)c(N)cc3OC)CC2)c1 (stereo not drawn) [Example 15, 4-amino-5-chloro-N-[[1-[2-(2,5-dimethoxyphenyl)-2-hydroxyethyl]piperidin-4-yl]methyl]-2-methoxybenzamide; hydrochloride] | 78.7% |
| COc1cc(N)c(Cl)cc1C(=O)NCC1CCN(CC(O)c2ccc(OC(F)F)cc2)CC1 (stereo not drawn) [Example 16, 4-amino-5-chloro-N-[[1-[2-[4-(difluoromethoxy)phenyl]-2-hydroxyethyl]piperidin-4-yl]methyl]-2-methoxybenzamide; hydrochloride] | 53.6% |
| COc1cc(N)c(Cl)cc1C(=O)NCC1CCN(CC(O)c2ccc(F)c(F)c2)CC1 (stereo not drawn) [Example 17, 4-amino-5-chloro-N-[[1-[2-(3,4-difluorophenyl)-2-hydroxyethyl]piperidin-4-yl]methyl]-2-methoxybenzamide; hydrochloride] | 22.1% |
| COc1cc(N)c(Cl)cc1C(=O)NCC1CCN(CC(NC(=O)O)c2ccc(C)cc2)CC1 (stereo not drawn) [Example 24, [2-[4-[[(4-amino-5-chloro-2-methoxybenzoyl)amino]methyl]piperidin-1-yl]-1-(4-methylphenyl)ethyl]carbamate; hydrochloride] | 71.1% |
| COc1cc(N)c(Cl)cc1C(=O)NCC1CCN(CC(NC(=O)O)c2ccccc2Cl)CC1 (stereo not drawn) [Example 29, [2-[4-[[(4-amino-5-chloro-2-methoxybenzoyl)amino]methyl]piperidin-1-yl]-1-(2-chlorophenyl)ethyl]carbamate; hydrochloride] | 61.3% |
| COc1cc(N)c(Cl)cc1C(=O)NCC1CCN(CC(NC(=O)O)c2ccc(OC(F)F)cc2)CC1 (stereo not drawn) [Example 32, [2-[4-[[(4-amino-5-chloro-2-methoxybenzoyl)amino]methyl]piperidin-1-yl]-1-[4-(difluoromethoxy)phenyl]ethyl]carbamate; hydrochloride] | 40% |
| COc1cc(N)c(Cl)cc1C(=O)NCC1CCN(CCC(O)c2ccccc2)CC1 (stereo not drawn) [Example 36, 4-amino-5-chloro-N-[[1-(3-hydroxy-3-phenylpropyl)piperidin-4-yl]methyl]-2-methoxybenzamide; hydrochloride] | 55.2% |
| COc1cc(N)c(Cl)cc1C(=O)NCC1CCN(CCC(O)c2ccc(F)cc2)CC1 (stereo not drawn) [Example 37, 4-amino-5-chloro-N-[[1-[3-(4-fluorophenyl)-3-hydroxypropyl]piperidin-4-yl]methyl]-2-methoxybenzamide; hydrochloride] | 70.7% |
| COc1cc(N)c(Cl)cc1C(=O)NCC1CCN(CCC(O)c2ccc(Cl)cc2)CC1 (stereo not drawn) [Example 38, 4-amino-5-chloro-N-[[1-[3-(4-chlorophenyl)-3-hydroxypropyl]piperidin-4-yl]methyl]-2-methoxybenzamide; hydrochloride] | 49.1% |
| COc1cc(N)c(Cl)cc1C(=O)NCC1CCN(CCC(O)c2ccc(C)cc2)CC1 (stereo not drawn) [Example 39, 4-amino-5-chloro-N-[[1-[3-hydroxy-3-(4-methylphenyl)propyl]piperidin-4-yl]methyl]-2-methoxybenzamide; hydrochloride] | 40% |
| COc1ccc(C(O)CCN2CCC(CNC(=O)c3cc(Cl)c(N)cc3OC)CC2)cc1 (stereo not drawn) [Example 40, 4-amino-5-chloro-N-[[1-[3-hydroxy-3-(4-methoxyphenyl)propyl]piperidin-4-yl]methyl]-2-methoxybenzamide; hydrochloride] | 51.6% |
| COc1cc(N)c(Cl)cc1C(=O)NCC1CCN(CCC(O)c2ccccc2Cl)CC1 (stereo not drawn) [Example 41, 4-amino-5-chloro-N-[[1-[3-(2-chlorophenyl)-3-hydroxypropyl]piperidin-4-yl]methyl]-2-methoxybenzamide; hydrochloride] | 24.3% |
| COc1cc(N)c(Cl)cc1C(=O)NCC1CCN(CCC(O)c2cccc(Cl)c2)CC1 (stereo not drawn) [Example 42, 4-amino-5-chloro-N-[[1-[3-(3-chlorophenyl)-3-hydroxypropyl]piperidin-4-yl]methyl]-2-methoxybenzamide; hydrochloride] | 42.7% |
| COc1cc(N)c(Cl)cc1C(=O)NCC1CCN(CCC(O)c2ccccc2F)CC1 (stereo not drawn) [Example 43, 4-amino-5-chloro-N-[[1-[3-(2-fluorophenyl)-3-hydroxypropyl]piperidin-4-yl]methyl]-2-methoxybenzamide; hydrochloride] | 46.1% |
| COc1cc(N)c(Cl)cc1C(=O)NCC1CCN(CCC(O)c2cccc(Cl)c2Cl)CC1 (stereo not drawn) [Example 45, 4-amino-5-chloro-N-[[1-[3-(2,3-dichlorophenyl)-3-hydroxypropyl]piperidin-4-yl]methyl]-2-methoxybenzamide; hydrochloride] | 51.4% |
| COc1cc(N)c(Cl)cc1C(=O)NCC1CCN(CCC(O)c2ccc(Cl)cc2Cl)CC1 (stereo not drawn) [Example 46, 4-amino-5-chloro-N-[[1-[3-(2,4-dichlorophenyl)-3-hydroxypropyl]piperidin-4-yl]methyl]-2-methoxybenzamide; hydrochloride] | 45.9% |
| COc1cc(N)c(Cl)cc1C(=O)NCC1CCN(CCC(O)c2ccc(Cl)c(Cl)c2)CC1 (stereo not drawn) [Example 47, 4-amino-5-chloro-N-[[1-[3-(3,4-dichlorophenyl)-3-hydroxypropyl]piperidin-4-yl]methyl]-2-methoxybenzamide; hydrochloride] | 25.9% |
| COc1cc(N)c(Cl)cc1C(=O)NCC1CCN(CCC(O)c2ccc(C(C)C)cc2)CC1 (stereo not drawn) [Example 48, 4-amino-5-chloro-N-[[1-[3-(4-isopropylphenyl)-3-hydroxypropyl]piperidin-4-yl]methyl]-2-methoxybenzamide; hydrochloride] | 3.5% |
| COc1cccc(C(O)CCN2CCC(CNC(=O)c3cc(Cl)c(N)cc3OC)CC2)c1 (stereo not drawn) [Example 49, 4-amino-5-chloro-N-[[1-[3-(3-methoxyphenyl)-3-hydroxypropyl]piperidin-4-yl]methyl]-2-methoxybenzamide; hydrochloride] | 17.8% |
| COc1cc(N)c(Cl)cc1C(=O)NCC1CCN(CCC(O)c2cccs2)CC1 (stereo not drawn) [Example 50, 4-amino-5-chloro-N-[[1-(3-hydroxy-3-thiophen-2-ylpropyl)piperidin-4-yl]methyl]-2-methoxybenzamide; hydrochloride] | 3.9% |
| COc1cc(N)c(Cl)cc1C(=O)NCC1CCN(CCC(O)Cc2ccc(F)cc2)CC1 (stereo not drawn) [Example 51, 4-amino-5-chloro-N-[[1-[4-(4-fluorophenyl)-3-hydroxybutyl]piperidin-4-yl]methyl]-2-methoxybenzamide; hydrochloride] | 122% |
| COc1cc(N)c(Cl)cc1C(=O)NCC1CCN(CCC(O)CCc2ccc(F)cc2)CC1 (stereo not drawn) [Example 52, 4-amino-5-chloro-N-[[1-[5-(4-fluorophenyl)-3-hydroxypentyl]piperidin-4-yl]methyl]-2-methoxybenzamide; hydrochloride] | 131% |
| COc1cc(N)c(Cl)cc1C(=O)NCC1CCN(CCC(NC(=O)O)c2ccccc2)CC1 (stereo not drawn) [Example 53, [3-[4-[[(4-amino-5-chloro-2-methoxybenzoyl)amino]methyl]piperidin-1-yl]-1-phenylpropyl]carbamate; hydrochloride] | 28.4% |
